# Test results taken from patent US20050208031A1, “Inhibition of calcium-independent phospholipases A2beta or A2gamma inhibit hormone-induced differentiation of 3T3-L1 preadipocytes” (priority 2003, published 2005).
# How the values were obtained:
# iPLA2 = assay: Phospholipase A2 (iPLA2) activity assay in day 8 3T3-L1 cell homogenates with radiolabelled POPC; assay type: biochemical; settings: 10 μM BEL, 3 min preincubation, day 8 cell homogenate, FIG. 3B
# Experimental: FIG. 3. Activities of PLA2 in 3T3-L1 cells during differentiation and their inhibition by BELs. 3T3-L1 cells were cultured and induced to differentiation as described in “Test Procedures.” At indicated differentiation stages, cell homogenates were prepared as described in “Test Procedures.” Phospholipase A2 activity was assessed by incubating 3T3-L1 cell protein (100-200 μg) with radiolabelled 1-palmitoyl-2-[1-^14C]-oleoyl-sn-glycerol-3-phosphocholine (POPC) (50 mCi/mmol, 5 μM final concentration, introduced by ethanol injection (2 μL)) in assay buffer (final conditions: 100 mM Tris-HCl, 4 mM EGTA, pH=7.2) at 37° C. for 30 min in a final volume of 200 μL. Reactions were quenched by addition of butanol (100 μL). 30 microliters of the organic phase was spotted on a Whatman silica plate which was developed with a nonpolar acidic mobile phase (100 mL of 70/30/1 petroleum ether/ethyl ether/acetic acid). Spots corresponding to fatty acids were scrapped into scintillation vials and radioactivity was quantified by scintillation spectrometry as described previously. A, iPLA2 activities of 3T3-L1 cells during differentiation. B, iPLA2 activities of homogenates of day 8 3T3-L1 cells after incubation at room temperature for 3 minutes in the absence or presence of 10 μM of (R)-BEL, (S)-BEL or racemic BEL.
# On the day of the test, the media of 3T3-L1 cells at different stages of differentiation were removed. The cells were washed briefly with PBS and detached by incubation in trypsin-EDTA (0.25% w/v) at 37° C. for […]. The cells were washed again with 5 volumes of CMRL-1066, transferred to a 50 mL Falcon centrifuge tube and centrifuged for 5 min at 1700 rpm at 4° C. […] Briefly, phospholipase A2 activity was assessed by incubating 3T3-L1 cell protein (100-200 μg) with radiolabelled phosphatidylcholine, L-α-palmitoyl-2-oleoyl [oleoyl-1-^14C] […] Spots corresponding to fatty acids were scrapped into scintillation vials and radioactivity was quantified by scintillation spectrometry as described previously^(32). […]
# iPLA2γ = biological target: T1, iPLA2γ (Homo sapiens, UniProt Q9NP80); settings: previously demonstrated; cited from earlier work
# T1 sequence (Q9NP80 1-782): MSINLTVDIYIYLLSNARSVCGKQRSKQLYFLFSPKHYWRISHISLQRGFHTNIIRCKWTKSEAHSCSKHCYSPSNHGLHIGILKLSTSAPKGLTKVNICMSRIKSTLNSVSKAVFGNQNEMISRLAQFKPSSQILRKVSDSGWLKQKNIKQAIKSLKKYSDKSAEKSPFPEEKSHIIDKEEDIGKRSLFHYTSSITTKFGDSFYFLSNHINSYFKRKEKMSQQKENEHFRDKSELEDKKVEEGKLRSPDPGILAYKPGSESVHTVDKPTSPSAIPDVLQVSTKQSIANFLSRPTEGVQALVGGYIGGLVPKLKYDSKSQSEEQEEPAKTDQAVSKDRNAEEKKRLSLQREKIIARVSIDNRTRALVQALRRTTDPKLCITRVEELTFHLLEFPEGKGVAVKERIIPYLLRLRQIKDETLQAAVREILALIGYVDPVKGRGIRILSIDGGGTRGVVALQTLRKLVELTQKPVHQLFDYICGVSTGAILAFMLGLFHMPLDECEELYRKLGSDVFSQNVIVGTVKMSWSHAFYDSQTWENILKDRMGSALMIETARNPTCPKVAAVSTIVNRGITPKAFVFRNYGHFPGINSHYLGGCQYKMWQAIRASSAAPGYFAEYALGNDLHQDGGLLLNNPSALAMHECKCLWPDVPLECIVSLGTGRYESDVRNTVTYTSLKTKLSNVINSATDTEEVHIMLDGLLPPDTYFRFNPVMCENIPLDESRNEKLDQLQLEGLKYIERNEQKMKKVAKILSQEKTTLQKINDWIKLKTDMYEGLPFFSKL
# 3T3-L1 cells = assay: TAG accumulation during hormone-induced differentiation of 3T3-L1 cells (ESI/MS); assay type: cell-based; settings: 5, 10 μM BEL for 4 days, day 8, ESI/MS, FIG. 6
# Experimental: FIG. 5. Effects of siRNAs directed against iPLA2β or iPLA2γ on TAG accumulation during 3T3-L1 cell differentiation. 3T3-L1 cells were cultured and transfected with 20 nM negative control siRNA, siRNA directed against iPLA2β, or siRNA directed against iPLA2γ prior to induction to differentiation as described in “Test Procedures.” 3T3-L1 cells were grown to day 8 and the cell monolayer was washed with ice-cold PBS and scraped into 1 mL 50 mM LiCl. The lipids were extracted by the method of Bligh-Dyer^(33) in the presence of an internal standard (Tril7:0TAG, 200 nmol/mg protein). Mass spectral analysis of TAG was performed by ESI/MS as described in “Test Procedures.” ESI/MS spectra of TAG of day 8 3T3-L1 cells with pretreatment of negative control siRNA (A), siRNA directed against iPLA2β (B) or siRNA directed against iPLA2γ (C) were shown. The results of TAG quantification (D) represent means ±S.E.M. of at least three independent cultures.
# FIG. 6. Effects of BELs on TAG accumulation during hormone-induced differentiation of 3T3-L1 cells. 3T3-L1 cells on two days post confluent were washed three times with DMEM, incubated at 37° C. for 20 min in DMEM with 0, 5, 10 μM racemic, R-, or S-BEL. The cells were induced to differentiate as described in “Test Procedures” in the presence of indicated concentrations of BELs for 4 days. […]
# iPLA2β = biological target: T2, iPLA2β (Homo sapiens, UniProt O60733); settings: previously demonstrated; cited from earlier work
# T2 sequence (O60733 1-806): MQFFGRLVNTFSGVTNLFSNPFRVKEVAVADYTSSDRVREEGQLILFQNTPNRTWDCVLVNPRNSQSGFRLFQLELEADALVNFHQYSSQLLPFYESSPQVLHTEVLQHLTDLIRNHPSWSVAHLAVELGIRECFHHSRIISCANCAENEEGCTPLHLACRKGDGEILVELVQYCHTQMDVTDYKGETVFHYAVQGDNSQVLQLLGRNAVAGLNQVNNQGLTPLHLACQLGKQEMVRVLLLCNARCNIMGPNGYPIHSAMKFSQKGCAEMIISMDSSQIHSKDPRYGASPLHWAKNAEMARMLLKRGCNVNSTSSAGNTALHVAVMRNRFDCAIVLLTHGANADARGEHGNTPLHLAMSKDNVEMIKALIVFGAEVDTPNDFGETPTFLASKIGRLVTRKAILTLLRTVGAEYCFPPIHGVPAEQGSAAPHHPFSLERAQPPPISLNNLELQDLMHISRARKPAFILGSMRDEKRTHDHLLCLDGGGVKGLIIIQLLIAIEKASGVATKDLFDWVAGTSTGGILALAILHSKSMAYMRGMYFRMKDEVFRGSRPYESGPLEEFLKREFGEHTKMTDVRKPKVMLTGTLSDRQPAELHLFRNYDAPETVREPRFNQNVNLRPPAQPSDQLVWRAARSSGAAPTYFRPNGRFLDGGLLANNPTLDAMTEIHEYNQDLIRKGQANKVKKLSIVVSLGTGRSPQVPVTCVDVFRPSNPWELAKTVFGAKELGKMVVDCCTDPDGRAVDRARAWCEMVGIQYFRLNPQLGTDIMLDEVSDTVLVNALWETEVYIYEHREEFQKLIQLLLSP
SMILES,inhibition of measured iPLA2 activity in 3T3-L1 adipocyte homogenate (iPLA2),selectivity for iPLA2γ (iPLA2γ),adipocyte differentiation (TAG accumulation) with BEL (3T3-L1 cells),selectivity for iPLA2β in comparison to iPLA2γ (iPLA2β)
O=C1O/C(=C/Br)CCC1c1cccc2ccccc12 (racemic) [racemic BEL],inhibited,–,–,–
O=C1O/C(=C/Br)CC[C@@H]1c1cccc2ccccc12 [(R)-BEL],inhibited to similar levels,approximately an order of magnitude,substantially decreased,–
O=C1O/C(=C/Br)CC[C@H]1c1cccc2ccccc12 [(S)-BEL],inhibited to similar levels,–,substantially decreased,approximately one order of magnitude
